Laboratory results as given in patent US9186360B2, “Treatment of respiratory disorders using TRPA1 antagonists” (GLENMARK PHARMACEUTICALS S.A., priority 2011, dated 2015).

What was measured:
[1] = system: ovalbumin sensitized Dunkin Hartley guinea pigs; assay: Ovalbumin induced asthma model in guinea pigs, intra-tracheal dosing; type: in vivo, guinea pig; conditions: for Percent inhibition of eosinophils: BAL 48 hours after challenge; for Airway conductance sGAW (AUC): 4 hours before ovalbumin challenge
Method: Healthy male Dunkin Hartley guinea pigs weighing between 300-400 gm were sensitized on day 0 with (5 mg) and on day 2 with (10 mg) of ovalbumin (Ova) and 10 mg of aluminum hydroxide gel given intra peritoneal (i.p.). Guinea pigs were challenged with 0.3% aerosolized ovalbumin on Day 21 following sensitization.
Actively sensitized male guinea pigs with free access to water, were fasted overnight, and used for the studies. Animals were assigned to one of the following groups during each experiment as per Table 2 below.
Guinea pigs were dosed intra-tracheally with Compound 52 or vehicle 4 hours before exposure to aerosolized ovalbumin challenge. The control group of animals received vehicle (Lactose powder—2 mg/animal, i.t.) only.
Broncho Alveolar Lavage (BAL) was performed at 48 hours after challenge with ovalbumin. Animals were anesthetized with an overdose of urethane, trachea was exposed and BAL was performed 5 times using 5 mL PBS. All aspirates of BAL were pooled and total number of cells determined using a hemocytometer. The BAL was centrifuged, and the cell pellet re-suspended in 50 μL guinea pig serum and used for preparation of smears. Slides were stained with Giemsa stain and a differential cell count of 500 cells based on standard morphology was performed manually.
The total number of eosinophils in each BAL sample was calculated using the formula:
[formula] Percent inhibition of eosinophils was calculated using the following formula: […]
The results for the bronchoconstriction part were calculated as percent (%) change in sGaw from saline base-line readings with saline taken just 1 minute before the antigen challenge and reported as peak change (mean±S.E.M.) for every 5 minutes for a total duration of 30 min after OA challenge. Area under the curve (AUC) was determined for each animal using GraphPad Prism. The percent (%) increase in AUC in the treated group relative to the vehicle group was calculated. Data was statistically analyzed using ANOVA and Dunnett's post hoc test.

[2] = system: ovalbumin sensitized Brown Norway rats; assay: Ovalbumin challenge in Brown Norway rats, intra-tracheal dosing (Example 3); type: in vivo, rat; conditions: i.t.
Method: Male Brown Norway rats were sensitized subcutaneously on day 0, 14 and 21 with 0.5 ml solution containing 20 μg/ml ovalbumin and 40 mg/ml aluminum hydroxide. Simultaneously animals were injected intraperitoneally (i.p.) with 0.25 ml of B. pertussis vaccine/rat containing 4×10^8 heat killed bacilli/ml. Rats were challenged with 1% aerosolized ovalbumin on Day 28 following sensitization.
Test compounds were triturated and volume was made up with Normal Saline (0.9% NaCl). Animals were administered Compound 52 intra-tracheally 1 hour before ovalbumin challenge. Animals were sacrificed 48 hours after ovalbumin challenge and BAL was performed as mentioned in Example 2. The pooled BAL was used to determined total number of cells using a hemocytometer. Further, cell differential study was performed according to Example 2.
The total number of eosinophils in each BAL sample was calculated using the formula: […]
Percent inhibition of eosinophils was calculated using the following formula: […]
The data was statistically evaluated by ANOVA followed by Dunnett's multiple comparisons test.

[3] = Pharmacokinetics in guinea pig upon intra-tracheal administration; type: in vivo; conditions: 500 mcg i.t.; for AUC0-24 / Cmax: mean ± SD (N = 3); for Tmax: guinea pig, other: intra-tracheal, 500 ug
Method: Guinea pigs were dosed intra-tracheally with Compound 52 with lactose as a vehicle. At various time points, animals were sacrificed with an overdose of urethane, trachea was exposed and BAL was performed 5 times using 5 mL PBS. Lung tissue was collected and kept at −70° C. until analysis. The BAL was centrifuged, and the cell pellet was collected and kept at −70° C. until analysis.

Compound: Cn1c(=O)c2c(CC(=O)Nc3nc(-c4ccc(F)c(C(F)(F)F)c4F)cs3)csc2n(C)c1=O [Compound 52]
- Percent inhibition of eosinophils ([1]; dose 125 μg/animal i.t.): 61%
- Percent inhibition of eosinophils ([1]; dose 250 μg/animal i.t.): 87%
- Percent inhibition of eosinophils ([1]; dose 500 μg/animal i.t.): 68%
- Airway conductance sGAW (AUC) ([1]; dose 25 (table μg/kg; text μg/animal) i.t.): 1399
- Percent improvement in airway conductance ([1]; dose 25 i.t.): 0%
- Percent inhibition of eosinophils ([1]; dose 25 i.t.): 0%
- Percent improvement in airway conductance ([1]; dose 50 i.t.): 7%
- Airway conductance sGAW (AUC) ([1]; dose 50 i.t.): 1592
- Percent inhibition of eosinophils ([1]; dose 50 i.t.): 0%
- Percent improvement in airway conductance ([1]; dose 125 i.t.): 39%
- Airway conductance sGAW (AUC) ([1]; dose 125 i.t.): 1943
- Percent improvement in airway conductance ([1]; dose 250 i.t.): 45%
- Airway conductance sGAW (AUC) ([1]; dose 250 i.t.): 2004
- Percent improvement in airway conductance ([1]; dose 500 i.t.): 43%
- Airway conductance sGAW (AUC) ([1]; dose 500 i.t.): 1987
- inhibition of eosinophils ([1]; dose not stated for this figure): 75%
- ED50, inhibition of pulmonary eosinophilia [2]: 213 µg
- AUC0-24 ([3]; Cell Pellet (BAL)): 70390 ± 12071 ng · h/ml or g
- Cmax ([3]; Cell Pellet (BAL)): 6726 ± 2049 ng/ml or g
- AUC0-24 ([3]; Lung Tissue): 103786 ± 28285 ng · h/ml or g
- Cmax ([3]; Lung Tissue): 4989 ± 2548 ng/ml or g
- Tmax ([3]; Cell Pellet (BAL)): 0.25 h
- Tmax ([3]; Lung Tissue): 8 h
